Measured values from patent US20230000870A1, “METHODS OF TREATING CANCER IN BIOMARKER-IDENTIFIED PATIENTS WITH INHIBITORS OF CYCLIN-DEPENDENT KINASE 7 (CDK7)” (Syros Pharmaceuticals, Inc., priority 2019, published 2023).

How the values were obtained:
A673 cells = test: Inhibition of proliferation of A673 cells (CyQUANT, 72 hour); type: cell-based, human; conditions: read-out: Inhibition of Proliferation of A673 Cells (calculated IC50)
Summary of the method: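 Read-out is CyQUANT after a 72 h proliferation period, following the kit protocol. Dilution series in 0.5-log steps over the stated 4 μM to […] range. Cells are A673 (human Ewing's sarcoma), grown in DMEM with 10% FBS and 1 mM sodium pyruvate at 37 °C under 5% CO2.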

[1] = target: CDK7/Cyclin H/MAT1 complex (Homo sapiens, UniProt P50613); test: CDK7 kinase inhibition assay (Caliper/LabChip EZ Reader); type: biochemical; conditions: CDK7/Cyclin H/MAT1 6 nM, ATP 2 mM, 35 min at 27° C.
Chain of CDK7/Cyclin H/MAT1 complex (P50613 whole entry): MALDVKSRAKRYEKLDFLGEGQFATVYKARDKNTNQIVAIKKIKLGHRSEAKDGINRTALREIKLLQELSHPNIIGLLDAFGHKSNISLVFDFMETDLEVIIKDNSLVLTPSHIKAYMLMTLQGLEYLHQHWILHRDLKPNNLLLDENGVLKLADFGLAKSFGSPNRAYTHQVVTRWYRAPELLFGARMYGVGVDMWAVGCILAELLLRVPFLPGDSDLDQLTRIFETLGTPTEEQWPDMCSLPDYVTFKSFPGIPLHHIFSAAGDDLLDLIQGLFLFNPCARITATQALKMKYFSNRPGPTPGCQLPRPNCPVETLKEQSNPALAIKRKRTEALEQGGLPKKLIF
Chain of CDK7/Cyclin H/MAT1 complex (P51946 whole entry partner): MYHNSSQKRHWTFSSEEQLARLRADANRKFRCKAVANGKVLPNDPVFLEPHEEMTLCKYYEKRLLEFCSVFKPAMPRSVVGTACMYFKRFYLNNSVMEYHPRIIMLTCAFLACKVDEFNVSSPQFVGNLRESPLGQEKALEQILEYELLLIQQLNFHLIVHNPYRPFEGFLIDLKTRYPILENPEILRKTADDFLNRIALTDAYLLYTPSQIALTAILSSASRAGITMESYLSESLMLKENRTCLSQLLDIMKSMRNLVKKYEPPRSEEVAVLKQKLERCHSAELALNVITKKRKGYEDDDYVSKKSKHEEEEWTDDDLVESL
Chain of CDK7/Cyclin H/MAT1 complex (P51948 whole entry partner): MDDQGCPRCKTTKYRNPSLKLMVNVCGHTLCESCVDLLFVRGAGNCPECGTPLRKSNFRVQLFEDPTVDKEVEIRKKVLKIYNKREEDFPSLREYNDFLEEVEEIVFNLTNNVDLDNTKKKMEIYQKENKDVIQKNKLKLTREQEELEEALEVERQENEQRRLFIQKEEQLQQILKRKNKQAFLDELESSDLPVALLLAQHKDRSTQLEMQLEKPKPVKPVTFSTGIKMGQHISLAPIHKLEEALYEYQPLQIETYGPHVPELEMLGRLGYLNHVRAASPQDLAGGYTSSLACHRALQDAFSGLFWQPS
Summary of the method: (§1)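 Incubation times were set for ~20% (±5%) peptide phosphorylation by uninhibited enzyme: CDK7 35 min, CDK2 35 min (0.5 nM complex, 2 μM 5-FAM-CDK7tide, 2 mM MgCl2), CDK12 3 hr (50 nM, 2 μM 5-FAM-CDK9tide, 2 mM MgCl2), CDK9 15 min (8 nM, 2 μM 5-FAM-CDK9tide, 10 mM MgCl2). Read-out on LabChip EZ Reader, 27° C.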

HCC70 cells = test: Inhibition of proliferation of HCC70 cells (CyQUANT Direct, 72 hour); type: cell-based, human; conditions: read-out: Inhibition of Proliferation of HCC70 Cells (calculated IC50)
Summary of the method: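 Anti-proliferative effect measured with the CyQUANT Direct kit after a 72 h exposure at 37 °C, 5% CO2. Compounds were tested at 0.5 log serial dilutions spanning 4–[…] on HCC70 triple-negative breast cancer cells cultured in RPMI-1640 with 10% FBS.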

[2] = target: T1, CDK12 (aa686-1082)/Cyclin K complex (Homo sapiens, UniProt Q9NYV4); test: CDK12 kinase inhibition assay (Caliper/LabChip EZ Reader); type: biochemical; conditions: CDK12 (aa686-1082)/Cyclin K 50 nM, ATP 2 mM, 3 hr at 27° C.
T1 construct: CDK12 (aa686-1082)/Cyclin K complex
T1 sequence (Q9NYV4 686-1082): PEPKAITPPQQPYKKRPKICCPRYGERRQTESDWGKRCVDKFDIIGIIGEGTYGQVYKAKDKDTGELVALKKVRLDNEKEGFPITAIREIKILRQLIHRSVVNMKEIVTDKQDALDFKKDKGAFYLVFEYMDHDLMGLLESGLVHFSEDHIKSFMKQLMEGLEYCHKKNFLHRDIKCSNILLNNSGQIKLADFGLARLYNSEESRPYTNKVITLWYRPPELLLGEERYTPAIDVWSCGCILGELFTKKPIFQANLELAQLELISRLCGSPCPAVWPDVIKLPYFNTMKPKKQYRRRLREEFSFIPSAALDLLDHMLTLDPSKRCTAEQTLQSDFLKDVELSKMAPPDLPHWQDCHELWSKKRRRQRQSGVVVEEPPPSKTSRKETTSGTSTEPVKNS
T1 sequence (O75909 whole entry partner, the tested form may be a part): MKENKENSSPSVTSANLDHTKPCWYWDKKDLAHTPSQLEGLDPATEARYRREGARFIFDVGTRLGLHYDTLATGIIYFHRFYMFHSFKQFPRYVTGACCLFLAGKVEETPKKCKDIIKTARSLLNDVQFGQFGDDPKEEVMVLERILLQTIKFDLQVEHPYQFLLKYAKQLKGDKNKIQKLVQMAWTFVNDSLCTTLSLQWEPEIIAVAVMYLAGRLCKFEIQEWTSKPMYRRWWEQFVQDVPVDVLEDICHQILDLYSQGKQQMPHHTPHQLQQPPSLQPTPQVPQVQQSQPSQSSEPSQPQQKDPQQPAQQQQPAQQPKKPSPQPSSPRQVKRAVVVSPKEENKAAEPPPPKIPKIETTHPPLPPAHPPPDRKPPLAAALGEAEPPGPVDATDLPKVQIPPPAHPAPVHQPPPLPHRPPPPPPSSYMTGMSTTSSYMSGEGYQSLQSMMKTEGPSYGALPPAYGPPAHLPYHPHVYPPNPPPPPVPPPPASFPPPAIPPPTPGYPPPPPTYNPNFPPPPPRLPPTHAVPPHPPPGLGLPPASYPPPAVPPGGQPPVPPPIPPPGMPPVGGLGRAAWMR
Summary of the method: as §1

CDK9/Cyclin T1 complex = CDK9/Cyclin T1 complex (Homo sapiens, UniProt P50750); test: CDK9 kinase inhibition assay (Caliper/LabChip EZ Reader); type: biochemical; conditions: CDK9/Cyclin T1 8 nM, ATP 2 mM, 15 min at 27° C.
Chain of CDK9/Cyclin T1 complex (P50750 whole entry): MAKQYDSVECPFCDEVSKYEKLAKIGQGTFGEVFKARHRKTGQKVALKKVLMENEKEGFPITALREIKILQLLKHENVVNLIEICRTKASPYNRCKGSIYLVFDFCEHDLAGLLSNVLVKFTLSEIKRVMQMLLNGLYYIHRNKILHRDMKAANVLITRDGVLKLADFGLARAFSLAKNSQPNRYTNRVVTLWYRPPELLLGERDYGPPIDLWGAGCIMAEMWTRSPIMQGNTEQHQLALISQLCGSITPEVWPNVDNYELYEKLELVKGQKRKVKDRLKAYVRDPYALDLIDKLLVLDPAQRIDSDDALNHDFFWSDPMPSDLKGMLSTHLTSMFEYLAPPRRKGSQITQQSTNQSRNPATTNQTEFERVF
Chain of CDK9/Cyclin T1 complex (O60563 whole entry partner): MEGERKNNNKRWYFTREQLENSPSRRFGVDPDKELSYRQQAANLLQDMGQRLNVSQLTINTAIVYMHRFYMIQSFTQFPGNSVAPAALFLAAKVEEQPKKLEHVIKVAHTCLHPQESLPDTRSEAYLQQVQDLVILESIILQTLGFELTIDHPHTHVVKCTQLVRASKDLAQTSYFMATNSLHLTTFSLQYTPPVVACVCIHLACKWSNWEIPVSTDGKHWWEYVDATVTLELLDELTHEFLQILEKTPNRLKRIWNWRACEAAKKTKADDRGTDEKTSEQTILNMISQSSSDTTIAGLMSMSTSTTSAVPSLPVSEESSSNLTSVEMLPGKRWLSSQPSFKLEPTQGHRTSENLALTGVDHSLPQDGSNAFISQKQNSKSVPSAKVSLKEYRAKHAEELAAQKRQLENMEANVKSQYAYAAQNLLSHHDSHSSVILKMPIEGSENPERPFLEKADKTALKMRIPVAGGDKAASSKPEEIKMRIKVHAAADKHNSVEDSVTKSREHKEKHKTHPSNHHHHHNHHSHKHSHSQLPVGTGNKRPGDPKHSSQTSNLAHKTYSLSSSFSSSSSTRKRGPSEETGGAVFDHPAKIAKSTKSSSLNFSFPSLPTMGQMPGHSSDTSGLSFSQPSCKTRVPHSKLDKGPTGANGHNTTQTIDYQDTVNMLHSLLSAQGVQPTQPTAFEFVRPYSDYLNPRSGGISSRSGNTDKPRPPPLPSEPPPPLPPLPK
Summary of the method: as §1

CDK2/Cyclin E1 complex = CDK2/Cyclin E1 complex (Homo sapiens, UniProt P24941); test: CDK2 kinase inhibition assay (Caliper/LabChip EZ Reader); type: biochemical; conditions: CDK2/Cyclin E1 0.5 nM, ATP 2 mM, 35 min at 27° C.
Summary of the method: as §1

| Structure (SMILES) | IC50 [1] [nM] | IC50 [2] [nM] | IC50 (CDK9/Cyclin T1 complex) [nM] | IC50 (CDK2/Cyclin E1 complex) [nM] | IC50 (A673 cells) [nM] | IC50 (HCC70 cells) [nM] |
| --- | --- | --- | --- | --- | --- | --- |
| O=C(c1ccc2c(-c3nc(NC4CCCNC4)ncc3C(F)(F)F)c[nH]c2c1)N1CCCC1 (stereo not drawn) [Compound 278] | 20 to 200 | 200 to 5000 | ≥ 5000 | 200 to 5000 | 20 to 200 | 100 to 1000 |
| COCn1cc(-c2nc(NC3CCCNC3)ncc2C(F)(F)F)c2ccc(C#N)nc21 (stereo not drawn) [Compound 283] | 200 to 5000 | ≥ 5000 | ≥ 5000 | ≥ 5000 | 200 to 5000 | 1000 to 5000 |

More lines, main results first:

| IC50 [1] [nM] | IC50 [2] [nM] | IC50 (CDK9/Cyclin T1 complex) [nM] | IC50 (CDK2/Cyclin E1 complex) [nM] | Structure (SMILES) | IC50 (A673 cells) [nM] | IC50 (HCC70 cells) [nM] |
| --- | --- | --- | --- | --- | --- | --- |
| < 20 | 200 to 5000 | 200 to 5000 | 200 to 5000 | CC1(C)CCC(Nc2ncc(C(F)(F)F)c(-c3c[nH]c4ccccc34)n2)CN1 (stereo not drawn) [Compound 190] | < 20 | 100 to 1000 |
| < 20 | ≥ 5000 | ≥ 5000 | ≥ 5000 | CCc1cnc(NC2CCCNC2)nc1-c1c[nH]c2cc(C#N)ccc12 (stereo not drawn) [Compound 246] | 200 to 5000 | 100 to 1000 |
| < 20 | 200 to 5000 | 200 to 5000 | 200 to 5000 | CS(=O)(=O)c1c(C#N)ccc2c(-c3nc(N[C@H]4CCCNC4)ncc3C(F)(F)F)c[nH]c12 [Compound 232] | < 20 | < 100 |
| < 20 | ≥ 5000 | ≥ 5000 | ≥ 5000 | CC1(O)CCN(C(=O)c2ccc3c(-c4nc(NC5CCCNC5)ncc4C(F)(F)F)c[nH]c3c2)C1 (stereo not drawn) [Compound 221] | 200 to 5000 | 100 to 1000 |
